# Reference: publication PMC9612231, “Antileishmanial Anthracene Endoperoxides: Efficacy In Vitro, Mechanisms and Structure-Activity Relationships” (Molecules, 2022)
# Read-outs that look alike come from different tables or passages of the source.
# What was measured:
# [1] = tested on: Leishmania tarentolae promastigotes (LtP); assay: Resazurin viability assay for LtP; assay type: cell-based; conditions: for IC50: Leishmania tarentolae, read-out: LtP IC50; for Selectivity IC50,J774/IC50,LtP: ratio of IC50 in J774 macrophages to IC50 in LtP; for IC50,non-EP/IC50,EP: ratio of IC50 of non-EP in LtP versus IC50 of respective EP
# Experimental: (§1) The influence of AcEP and their analogs (Ac) on the viability of cells was tested in Leishmania tarentolae promastigotes (LtP) and J774 macrophages (Table 2). Based on the changes of viability of the respective cell lines at different compound concentrations, IC50 values were calculated. In Table 2, the IC50 values in both cell lines were compared for the individual compounds. From the ratio of IC50 values in J774 macrophages to IC50 values in LtP, an in vitro selectivity was calculated.
# LtP (strain P10 from Jena Bioscience, Jena, Germany) were cultivated according to manufacturer instructions up to passage 50 in brain heart infusion medium (37 g/L, pH 7.4) and supplemented with 5 mg/L hemin and 25,000 IU/L penicillin and 25 mg/L streptomycin in 50 mL TubeSpin bioreactors (TPP, Trasadingen. Switzerland). LtP were grown at 27 °C in an incubator (Ehret, Emmendingen, Germany) and agitated at a frequency of 0.05 s^−1. […] For experiments, LtP were used one day after passage. The cell number was calculated by measuring the optical density (OD) of the culture at 600 nm with a U-1100 photometer (Hitachi Ltd., Tokyo, Japan) and applying the formula × 10^6 cells/mL = OD600nm × 0.969 × 124 × dilution factor [53].
# Assay medium of YEM (20.7 g/L yeast extract powder, 1.2 g/L K2HPO4, 0.2 g/L KH2PO4, 2.9 g/L glucose, pH 7.4) and PBS (1:1, v/v), 25,000 U/L penicillin, 25 mg/L streptomycin, and 7.7 µM hemin was prepared. Aliquots of 200 µL of this medium and 2 × 10^6 LtP/mL (where required) were distributed in non-treated cell culture 96-well plates. Compounds (dissolved in DMSO) were added with starting concentrations of 25 µM (Pen) or 200 µM (AcEP/Ac), and then, serial dilutions were carried out resulting in a set of concentrations (25, 5, 1, 0.2, 0.04, and 0.008 µM) or (200, 40, 8, 1.6, 0.32, and 0.064 µM). For each compound concentration, at least triplicates on each plate were performed. After incubation of the plates at 27 °C for 48 h, 50 µL of resazurin solution (final concentration in wells 20 µM) was added to each well and after 4 h of incubation, the fluorescence was measured at 560 nm excitation and 590 nm emission using a plate reader (Perkin Elmer EnSpire, Rodgau, Germany) (adapted from). Combination assays for viability in the presence of PIH and NAC were performed the same way. […] All tests were repeated at least on four different weeks of cultivation.
# (§2) Calculations were carried out using Microsoft Excel 2016 (Microsoft). The graphs were created using Origin 6.1 (OriginLab Corporation, Northampton, MA, USA). For all groups of experimental data, mean and standard deviation (SD) were calculated. Statistically significant differences between groups of sample data were identified by unpaired two-tailed Student’s t-test. Differences on the level of p < 0.05 were considered significant. The number of replicates is indicated at the respective figures/tables. The half-maximal inhibitory concentrations (IC50) were determined from non-linear concentration-response curves using a four-parameter logistic model and expressed as the mean ± SD.
# [2] = tested on: J774 macrophages; assay: Resazurin viability assay for J774 macrophages; assay type: cell-based, murine; conditions: read-out: J774 IC50
# Experimental: as §1
# The murine macrophage cell line J774A.1 (ATCC, TIB-67™, Wesel, Germany) was cultivated up to passage 30 in DMEM (high glucose, 3.7 g/L NaHCO3, pH 7.4) with 25,000 IU/L penicillin, 25 mg/L streptomycin, and 10% FCS (heat-inactivated) in 50 mL TubeSpin bioreactors. J774 cells were incubated at 37 °C and 5% CO2 on a roller culture apparatus (5 rpm) in a Heraeus Cytoperm 8080 incubator (Thermo Electron Corp., Vienna, Austria). To determine the cell count, the cell suspension was re-suspended and diluted 1:2 with phosphate-buffered saline (PBS): 137 mM NaCl, 1.4 mM KH2PO4, 4.3 mM Na2HPO4, and 2.7 mM KCl, pH 7.4. After fixation of the cells by mixing the cell suspension 1:1 with a formaldehyde solution (2%, v/v), aliquots of the resulting suspension were transferred into a standard Neubauer chamber (VWR, Austria) and counted manually using a light microscope (Motic BA310, Vienna, Austria) at a magnification of 40 times. J774 cells were passaged twice a week in a ratio of 1:10.
# DMEM containing 25,000 U/L penicillin, 25 mg/L streptomycin, 10% FCS, and 1 × 10^5 J774/mL was prepared. This mixture (200 µL) was distributed in cell culture-treated 96-well plates, except the control wells which contained only DMEM. The cells were incubated for 24 h at 37 °C and 5% CO2 to allow attachment. Afterwards the medium and non-adherent cells were removed by washing with PBS, and then, 200 µL DMEM was added to attached cells. Compounds dissolved in DMSO were added in starting concentrations of 25 µM (Pen) or 200 µM (AcEP/Ac), and then, serial dilutions were carried out resulting in the same concentration steps as listed for LtP. For each compound concentration triplicates on each plate were performed. […], 50 µL of resazurin solution (final concentration 20 µM) was added, and after 4 h of incubation, the fluorescence was measured at 560 nm excitation and 590 nm emission using a plate reader (Perkin Elmer EnSpire, Rodgau, Germany). All tests were repeated at least on four different weeks of cultivation.
# as §2
# [3] = Formation of the xylenol orange/Fe3+ complex by EP; conditions: AcEP and 250 µM FeSO4 in methanol/H2O (9:1); for XO/Fe^3+ Formation Rate: mean ± SD of 3 experiments
# Text: In subsequent experiments, we explored the activation of EP and possible cellular consequences of these compounds in Leishmania. In a chemical system, we tested how fast EP react with iron (II) and, therefore, lead to the activation of these compounds. Resulting iron (III) was detected as complex with xylenol orange (XO, Figure 3). The reaction rate of the EP stretched across two magnitudes of orders (Table 3). On the first view, there is no direct link between the activation rates and the efficiency of the compounds against Leishmania.
# XO (125 µM) and butylated hydroxytoluene (4 mM) were dissolved in MeOH/H2O (9:1). FeSO4 (25 mM) in 2.5 M H2SO4 was prepared immediately before use (final concentration of 250 µM FeSO4 in the color reagent). An aliquot of 100 µL EP solution (final concentration of 100 µM) was transferred into a disposable cuvette (BRAND, Wertheim, Germany), and 1 mL of the color reagent was added. The EP that reacted slower were incubated for 0, 30, 60, and 90 min at 25 °C. The EP that reacted faster were measured every 5 s over 5 min. At these time points, the OD difference of the sample at 560 nm and 650 nm was determined using a MS1501 UV–VIS diode array spectrophotometer (Shimadzu, Kyoto, Japan). As reference, a mixture of MeOH/H2O (9:1) was used. The slope of the reaction rate was calculated using an extinction coefficient of 1.5 × 10^4 M^−1 cm^−1.
# [4] = tested on: LtP; assay: Superoxide radical formation in LtP by the EPR/CMH method; assay type: cell-based, Leishmania tarentolae; conditions: antimycin A 20 µM, 20 min at 25 °C
# Text: Since mitochondrial inhibition can be triggered by secondary damage in the respective cells, for example, by superoxide radicals, we studied the formation of superoxide radicals in LtP by the EPR/hydroxyl-3-methoxycarbonyl-2,2,5,5-tetramethylpyrrolidine hydrochloride (CMH) method (Figure 10). […] In the presence of antimycin A (AA, an inhibitor of mitochondrial complex III), the superoxide radical formation in LtP is increased by more than 150% (Figure 11).
# An aliquot of the LtP cell culture equivalent to 5 × 10^8 LtP was transferred into a 1.5 mL Eppendorf tube and was centrifuged (Hettich Universal 16, 20 °C, 2000× g, 10 min). After removal of the supernatant, the cell pellet was re-suspended in 1 mL PBS and centrifuged again and the supernatant discarded. The cell pellet was re-suspended in 1 mL of PBS with 15 mM glucose (PBS-gluc), giving a final cell density of 5 × 10^8 LtP/mL. AcEP/Ac compounds were added (100 µM final concentration) to aliquots of 50 µL of this cell suspension in 1.5 mL Eppendorf tubes and incubated for 20 min at 25 °C. Then, DFO (100 μM final concentration), DTPA (25 μM final concentration), and detection agent CMH (400 µM final concentration) were added to the aliquots before measurement. Samples containing only buffer (PBS-gluc) or only LtP (in PBS-gluc) were used as negative controls, while samples containing 20 μM AA were used as positive control. An aliquot of 17 µL suspension was aspirated into a PTFE tube (ø 0.7 mm). The tube was folded into a quartz tube (ø 4 mm outer diameter) and then transferred to the MD5 resonator of the EPR spectrometer. The measurement was started using following parameters: microwave frequency 9.682 GHz; microwave power 20 mW, modulation frequency 100 kHz; modulation amplitude 1 G; time constant 0.82 s; center field 3448 G; sweep width 100 G; scan time 84 s; attenuation 70 dB; separate scans 5. Based on a calibration curve with carboxy proxyl (CP^●) changes of the peak-to-peak intensity of CM^● spectra were converted to CMH oxidation rates (superoxide radical generation).
# [5] = resazurin viability, endpoint 48 h, 2 × 10^6 LtP/mL, mean ± SD of 4–8 experiments
# [6] = Mus musculus, J774, 48 h, resazurin viability, endpoint 48 h, 10^5 J774 cells/mL, mean ± SD of 4–8 experiments
"IC50 [1, 5]","Selectivity IC50,J774/IC50,LtP [1]",SMILES,"IC50 [2, 6]",Log10 (Formation Rate) [3],XO/Fe^3+ Formation Rate [3],further results
19.7 ± 14.1 µM,0.06,c1ccc2c(c1)C1OOC2c2ccccc21 [AcEP],1.21 ± 0.32 µM,3.90,8110 ± 4197 nmol/min,"IC50,non-EP/IC50,EP [1]: >10.1"
> 200 µM,,CC(=O)OCC1OC(OC23OOC(OC4OC(COC(C)=O)C(OC(C)=O)C(OC(C)=O)C4OC(C)=O)(c4ccccc42)c2ccccc23)C(OC(C)=O)C(OC(C)=O)C1OC(C)=O (stereo not drawn) [BisGluAcEP],> 200 µM,3.83,6800 ± 326 nmol/min,
> 200 µM,,CC(=O)OCC1OC(Oc2c3ccccc3c(OC3OC(COC(C)=O)C(OC(C)=O)C(OC(C)=O)C3OC(C)=O)c3ccccc23)C(OC(C)=O)C(OC(C)=O)C1OC(C)=O (stereo not drawn) [BisGluAc],> 200 µM,,,
> 200 µM,,CC(=O)OCC1OC(C23C=C(C(C)(C)C)C(C4OC(COC(C)=O)C(OC(C)=O)C(OC(C)=O)C4OC(C)=O)(OO2)c2ccccc23)C(OC(C)=O)C(OC(C)=O)C1OC(C)=O (stereo not drawn) [MB359EP],> 200 µM,4.26,"18,533 ± 1147 nmol/min",
32.3 ± 23.4 µM,4.7,CC(=O)OCC1OC(OC23OOC(c4ccccc42)c2ccccc23)C(OC(C)=O)C(OC(C)=O)C1OC(C)=O (stereo not drawn) [MonoGluAcEP],153 ± 82.1 µM,4.10,"12,697 ± 1500 nmol/min","IC50,non-EP/IC50,EP [1]: 4.89"
158 ± 45.1 µM,0.6,CC(=O)OCC1OC(Oc2c3ccccc3cc3ccccc23)C(OC(C)=O)C(OC(C)=O)C1OC(C)=O (stereo not drawn) [MonoGluAc],101 ± 7.8 µM,,,
0.52 ± 0.16 µM,,"N=C(N)c1ccc(OCCCCCOc2ccc(C(=N)N)cc2)cc1 [Pen, pentamidine, reference compound]",~12 µM,,,"LtP IC50 [1, 5]: submicromolar; IC50 ([2]; resazurin viability, endpoint 48 h, 10^5 J774 cells/mL, mean ± SD of 4–8 experiments): 12.3 ± 3.96 µM"
,,"CCCCCC[C@H]1C(=O)O[C@H](C)[C@H](NC(=O)c2cccc(NC=O)c2O)C(=O)O[C@@H](C)[C@@H]1OC(=O)CC(C)C [antimycin A, reference compound]",,,,Increase of superoxide radical formation in LtP [4]: more than 150%
> 200 µM,,c1cncc(C23OOC(c4cccnc4)(c4ccccc42)c2ccccc23)c1 [mPyAcEP],> 200 µM,2.85,708 ± 37 nmol/min,"IC50,non-EP/IC50,EP [1]: <0.26"
52.5 ± 3.3 µM,1.2,c1cncc(-c2c3ccccc3c(-c3cccnc3)c3ccccc23)c1 [mPyAc],63.7 ± 7.6 µM,,,
73.3 ± 25.2 µM,>2.7,COc1ccccc1-c1c2ccccc2c(-c2ccccc2OC)c2ccccc12 [oOMeAc],> 200 µM,,,
34.5 ± 12.8 µM,2.0,c1ccc(-c2c3ccccc3c(-c3ccccn3)c3ccccc23)nc1 [oPyAc],70 ± 10.5 µM,,,

SMILES,"IC50 [1, 5]","Selectivity IC50,J774/IC50,LtP [1]","IC50 [2, 6]",Log10 (Formation Rate) [3],XO/Fe^3+ Formation Rate [3],further results
c1ccc(-c2c3ccccc3c(-c3ccccc3)c3ccccc23)cc1 [DPAc],197 ± 92 µM,0.7,136 ± 35 µM,,,"Activity against LtP, in words ([1]; viability assay): rather inactive"
CC(C)(C)c1ccc2c(-c3ccccn3)c3ccccc3c(-c3ccccn3)c2c1 [pPyBuAc],,57,,,,"IC50 ([1]; 48 h): 1.86 ± 1.1 µM; IC50 ([2]; Mus musculus, J774, 48 h): 107 ± 46 µM"
